Reference: the supplement of paper PMC4932681
Where a name gives a salt, the structure may show the parent alone.

Experiments:
Assay in all cases: viability inhibition at highest dose (% inhibition); higher = more growth inhibition
MCF-7 Tam1 = conditions: 4-OH-tamoxifen in medium 1 µM; 72 h
Summary of the method: (§1)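 CellTiter-Glo viability was the readout, taken on a PHERAstar and normalised to vehicle-only and positive controls. It was measured after breast cancer cell lines and their resistant derivatives spent 72 h at 37 °C in 384-well plates containing library drugs at five concentrations spanning a 10 000-fold range, with 1 μM of the selecting drug in the medium of resistant lines. From logistic dose–response fits in the Breeze pipeline came drug sensitivity score, relative IC50 (curve midpoint) and top-dose inhibition.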

BT-474 Tam2 = conditions: 4-OH-tamoxifen in medium 1 µM; 72 h
Summary of the method: as §1

T-47D Tam1 = conditions: 4-OH-tamoxifen in medium 1 µM; 72 h
Summary of the method: as §1

ZR-75-1 Tam1 = conditions: 4-OH-tamoxifen in medium 1 µM; 72 h
Summary of the method: as §1

BT-474 Tam1 = conditions: 4-OH-tamoxifen in medium 1 µM; 72 h
Summary of the method: as §1

T-47D = conditions: 72 h
Summary of the method: as §1

ZR-75-1 = conditions: 72 h
Summary of the method: as §1

T-47D Tam2 = conditions: 4-OH-tamoxifen in medium 1 µM; 72 h
Summary of the method: as §1

BT-474 = conditions: 72 h
Summary of the method: as §1

ZR-75-1 Tam2 = conditions: 4-OH-tamoxifen in medium 1 µM; 72 h
Summary of the method: as §1

MCF-7 = conditions: 72 h
Summary of the method: as §1

| Compound | viability inhibition at highest dose (MCF-7 Tam1) | viability inhibition at highest dose (BT-474 Tam2) | viability inhibition at highest dose (T-47D Tam1) | viability inhibition at highest dose (ZR-75-1 Tam1) | viability inhibition at highest dose (BT-474 Tam1) | viability inhibition at highest dose (T-47D; 4-OH-tamoxifen in medium 0 µM) | viability inhibition at highest dose (T-47D; 4-OH-tamoxifen in medium 1 µM) | viability inhibition at highest dose (ZR-75-1; 4-OH-tamoxifen in medium 0 µM) | viability inhibition at highest dose (ZR-75-1; 4-OH-tamoxifen in medium 1 µM) | viability inhibition at highest dose (T-47D Tam2) | viability inhibition at highest dose (BT-474; 4-OH-tamoxifen in medium 0 µM) | viability inhibition at highest dose (BT-474; 4-OH-tamoxifen in medium 1 µM) | viability inhibition at highest dose (ZR-75-1 Tam2) | viability inhibition at highest dose (MCF-7; 4-OH-tamoxifen in medium 0 µM) | viability inhibition at highest dose (MCF-7; 4-OH-tamoxifen in medium 1 µM) |
| --- | --- | --- | --- | --- | --- | --- | --- | --- | --- | --- | --- | --- | --- | --- | --- |
| Cn1cc(CNCC2CCN(c3ncc(C(=O)NO)cn3)CC2)c2ccccc21 (drug 1000 nM) | 21.6 | 74.7 | 86.6 | 37.4 | 83.8 | 94.3 | 94.1 | 47.6 | 37.9 | 71.1 | 88.3 | 94.3 | 48.7 | 89.3 | 90 |
| CC1(C)CNc2cc(NC(=O)c3cccnc3NCc3ccncc3)ccc21 [Motesanib  (AMG-706)] (drug 10000 nM) | -1.95 | -2.84 | 9.4 | -1.35 | -2.75 | -15.1 | -10.7 | -8.12 | -2.93 | 12.6 | -7.25 | -16.2 | -1.27 | -2.53 | 1.3 |
| CC[C@H](Nc1ncnc2[nH]cnc12)c1nc2cccc(F)c2c(=O)n1-c1ccccc1 [CAL-101] (drug 10000 nM) | -0.638 | 5.84 | 24.5 | 50.8 | 8.87 | 15.2 | 13.7 | 45.9 | 45 | 33.6 | 4.44 | 17 | 57.3 | 22.4 | 21.3 |
| CS(=O)(=O)N1CCN(Cc2cc3nc(-c4cccc5[nH]ncc45)nc(N4CCOCC4)c3s2)CC1 [Pictilisib (GDC-0941)] (drug 10000 nM) | 64.4 | 82.5 | 70.6 | 76.9 | 86.1 | 68.5 | 76.6 | 64.3 | 60.7 | 67.4 | 63.6 | 90.6 | 76.1 | 76.8 | 81.6 |
| Cc1ccc([N+](=O)[O-])cc1S(=O)(=O)N(C)/N=C/c1cnc2ccc(Br)cn12 [PIK-75 (HCl)] (drug 10000 nM) | 81.4 | 98.6 | 91.4 | 88.8 | 99.3 | 60.4 | 56.9 | 80 | 71 | 83.6 | 97.9 | 97.7 | 83.9 | 64.9 | 85.5 |
| O=NN(CCCl)C(=O)NC1CCCCC1 [Lomustine] (drug 10000 nM) | -10.9 | -2.72 | -5.12 | -0.686 | 0.268 | -10.8 | -1.44 | -11.7 | -5.51 | 7.26 | -2.85 | 4.76 | -14.9 | 12.6 | 13.1 |
| C[C@@H]1CCN(C(=O)CC#N)C[C@@H]1N(C)c1ncnc2[nH]ccc12 [Tofacitinib (Tasocitinib)] (drug 5000 nM) | 1.13 | -10.5 | -1.37 | 4.16 | -11.1 | 3.16 | -4.5 | -2.74 | -1.91 | -13.3 | 0.0745 | -12.8 | 10.5 | -15.3 | 12.9 |
| C#Cc1cccc(Nc2ncnc3cc(OCCOC)c(OCCOC)cc23)c1 [Erlotinib] (drug 10000 nM) | 12.5 | 87.1 | 39.8 | 14.6 | 94.4 | 20.8 | 9 | 3.58 | 12.2 | 40 | 43 | 94.5 | 10.9 | 4.3 | 0.353 |
| Cc1cc(C(C)Nc2ccccc2)c2nc(N3CCOCC3)cc(=O)n2c1 (stereo not given) [TGX-221] (drug 10000 nM) | 9.33 | 42.5 | 12.4 | 49 | 29 | 8.41 | 24.1 | 52 | 45.3 | 15.9 | 9.95 | 25.3 | 51.8 | 21.3 | 25.4 |
| CN(N=O)C(=O)N[C@@H](C=O)[C@@H](O)[C@H](O)[C@H](O)CO [Streptozocin] (drug 10000 nM) | -3.41 | -7.21 | -3.33 | 1.17 | -7.72 | -10.8 | -3.95 | -9.82 | 2.7 | 9.65 | -7.13 | 3.07 | -12.2 | -9.93 | -7.59 |
| CC[C@H](CO)Nc1nc(NCc2ccccc2)c2ncn(C(C)C)c2n1 [Seliciclib (Roscovitine)] (drug 10000 nM) | 13.8 | 3.77 | 24.8 | -5.94 | -2.39 | -4.76 | -17.1 | -12.8 | -9.91 | 23.6 | -9.62 | -8.52 | -4.53 | 29 | 17.2 |
| C[C@@H]1C[C@H]2[C@@H]3CCC4=CC(=O)C=C[C@]4(C)[C@@]3(F)[C@@H](O)C[C@]2(C)[C@@]1(O)C(=O)CO [Dexamethasone  (Decadron)] (drug 10000 nM) | -7.5 | -0.0711 | 1.63 | 3.7 | 3.71 | -14.5 | -19 | -4.79 | -6.32 | 10.6 | -8.58 | -20.8 | 12.7 | -5.26 | 18 |
| NC(=O)c1cccc2cn(-c3ccc([C@@H]4CCCNC4)cc3)nc12 [MK-4827] (drug 10000 nM) | -3.14 | 21.1 | 1.65 | 2.04 | 42.3 | 20.9 | -1.38 | 11.6 | 8.9 | 14.2 | -13.3 | -7.59 | 9.71 | 12.1 | 16.4 |
